Experiments:
WSU-FSCCL = assay: Growth inhibition assay for NHL lines; assay type: cell-based; conditions: NHL FL, 96 hours, n ≧ 3
Experimental: Growth Inhibition Assay for HCC and NHL Lines. The seeding density for each cell line was optimized to ensure assay linearity in 384-well plates.
Compound 1 was dissolved in dimethyl sulfoxide (DMSO) to prepare a 10 mM stock solution. A serial titration was performed to produce a working concentration range of […] to 10 mM. Aliquots to produce final concentrations of 1.5 nM to 10 μM were spotted via an acoustic dispenser (EDC ATS-100) into an empty 384-well plate. Compound 1 was spotted in a 10-point serial dilution fashion (3-fold dilution) in duplicate within the plate. The DMSO concentration was kept constant for a final assay concentration of 0.1% DMSO. Plates were replicated for use with different cell lines and testing periods. After compound plate replication, all plates were sealed (Agilent ThermoLoc) and stored at −20° C. for up to 1 month. […] When ready for testing, plates were removed from the freezer, thawed, and unsealed just prior to the addition of the test cells. Prior to testing, cells were grown and expanded in culture flasks to provide sufficient amounts of starting material. Cells were then diluted to the appropriate densities and added directly to the compound-spotted 384-well plates. Cells were allowed to grow for 96 hours at 37° C./5% CO2. At the time when compound was added (t0), initial cell number was assessed via a viability assay (Cell Titer-Glo) by quantifying the level of luminescence generated by ATP present in viable cells. After 96 hours, cell viability of compound-treated cells was assessed via Cell Titer-Glo and luminescence measurement. Cell lines were assayed for growth inhibition by Compound 1 in at least 3 independent tests. A control cell line (the lung tumor cell line, A549) was included in each of the assays. The compound response against this control cell line was monitored closely to enable comparison of the data generated through the assay period. All data were normalized and presented as a percentage of the DMSO-treated cells. Results were then expressed as a GI50 value. The GI50 value corrects for the cell count at time zero. In addition, the IC50 value of Compound 1 for each cell line was calculated.

U87MG tumors = assay: U87MG human glioblastoma xenograft model (Compound 2); assay type: in vivo, SCID mice
Experimental: U87MG Human Glioblastoma Xenograft Model (Compound 2). Efficacy Studies: Groups of female SCID mice bearing U87MG tumors (n=8-10/group) were dosed orally with vehicle or Compound 2 (doses ranged between 0.05 and 1 mg/kg) throughout the study, starting when tumor volumes reached approximately 170-180 mm^3. The twice daily (BID) dose groups were dosed with a 10-hour separation between morning and evening doses. In the positive control group, rapamycin was administered every third day (Q3D) via intraperitoneal (IP) route. At the end of each study, plasma and/or tumor samples were collected.
Cell Line and Culture. U87MG cell line was obtained from American Tissue Culture Collection (ATCC) (Gaithersburg, Md.) and grown in growth medium containing MEM, 2 mM L-glutamine, 0.1 mM non-essential amino acids, and 1 mM sodium pyruvate plus 10% FBS. The cells were detached from tissue culture flasks using trypsin-EDTA. After centrifugation, the cell pellets were suspended in PBS and cells counted using a hemocytometer. The final volume was adjusted to 5×10^6 cells/0.1 mL of PBS.
Tumor Cell Inoculation. […]
Randomization of Animals. […] The tumor of each animal was measured and animals with tumors ranging between 170 and 180 mm^3 were included in the study. […]
Tumor Measurements. Tumor volumes were determined prior to the initiation of treatment and were considered as the starting volumes. Thereafter, tumors were measured twice a week for the duration of the study. The long and short axes of each tumor were measured using a digital caliper in millimeters. Tumor volumes were calculated using the formula: width^2×length/2. […]
Body Weight Measurements. Initial body weights were recorded prior to the initiation of treatment using a digital scale. The percentage body weight change during the course of the study was calculated using initial body weight measurements. Body weights of each animal were measured twice a week at the same time as the tumor measurements. Body weights were measured more frequently if significant decreases were noted during the course of the study.

| SMILES | GI50 (WSU-FSCCL) | IC50 (WSU-FSCCL) | average tumor volumes compared with vehicle (U87MG tumors; 0.05, 0.1 and 0.3 mg/kg BID oral, Day 35) | average tumor volumes compared with vehicle (U87MG tumors; 0.1, 0.5 and 1 mg/kg QD oral, Day 34) | lowest efficacious dose (approximately 65% tumor volume inhibition) (U87MG tumors; QD oral, 3 weeks) |
| --- | --- | --- | --- | --- | --- |
| CO[C@H]1CC[C@H](N2C(=O)CNc3ncc(-c4ccc(C(C)(C)O)nc4)nc32)CC1 [Compound 1, 7-(6-(2-hydroxypropan-2-yl)pyridin-3-yl)-1-((1r,4r)-4-methoxycyclohexyl)-3,4-dihydropyrazino-[2,3-b]pyrazin-2(1H)-one] | 160 ± 40 nM | 190 ± 40 nM | – | – | – |
| CCN1C(=O)CNc2ncc(-c3ccc(-c4nc[nH]n4)nc3C)nc21 [Compound 2, 1-ethyl-7-(2-methyl-6-(1H-1,2,4-triazol-3-yl)pyridin-3-yl)-3,4-dihydropyrazino[2,3-b]pyrazin-2(1H)-one] | – | – | significantly smaller (p<0.001) | significantly smaller (p<0.001) | 0.5 mg/kg |
